Results: patent US10131652B2, “Pyrimidinyloxy benzene derivatives as herbicides” (E. I. DU PONT DE NEMOURS AND COMPANY, priority 2014, dated 2018)
Where two headings read alike, the source gives them in different places.

Key:
Assay type in all cases: in vivo
[1] = system: barnyardgrass (Echinochloa crus-galli); assay: Test C flooded paddy test plant response; conditions: Echinochloa crus-galli; Flood, 250 g ai/ha; scale of 0 to 100 where 0 is no effect and 100 is complete control; 13 to 15 days; read-out: Barnyardgrass plant response rating
Summary of the method: (§1)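 Scored visually on a 0–100 scale (100 = complete control) against untreated plants 13 to 15 days after treatment in the greenhouse. Compounds went into paddy water of pots flooded to 3 cm, holding 2-leaf-stage plants.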

[2] = system: ducksalad (Heteranthera limosa); assay: Test C flooded paddy test plant response; conditions: Heteranthera limosa; Flood, 250 g ai/ha; scale of 0 to 100 where 0 is no effect and 100 is complete control; 13 to 15 days; read-out: Ducksalad plant response rating
Summary of the method: as §1

[3] = system: small-flower umbrella sedge (Cyperus difformis); assay: Test C flooded paddy test plant response; conditions: Cyperus difformis; Flood, 250 g ai/ha; scale of 0 to 100 where 0 is no effect and 100 is complete control; 13 to 15 days; read-out: Sedge, Umbrella plant response rating
Summary of the method: as §1

[4] = system: rice (Oryza sativa); assay: Test C flooded paddy test plant response; conditions: Oryza sativa; Flood, 250 g ai/ha; scale of 0 to 100 where 0 is no effect and 100 is complete control; 13 to 15 days; read-out: Rice plant response rating
Summary of the method: as §1

[5] = system: barnyardgrass (Echinochloa crus-galli); assay: Test B pre-/postemergence plant response; conditions: for pest or weed control at 500 g/ha: 500 g ai/ha
Summary of the method: (§2)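 Steps: plant seeds in loam soil–sand mix; spray soil preemergence, and in parallel spray 2–10 cm one- to two-leaf plants postemergence; hold ~10 days in greenhouse; visually rate injury against untreated controls (0 = no effect, 100 = complete control).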

[6] = system: giant foxtail (Setaria faberii); assay: Test B pre-/postemergence plant response; conditions: for pest or weed control at 500 g/ha: 500 g ai/ha
Summary of the method: as §2

[7] = system: corn (Zea mays); assay: Test B pre-/postemergence plant response; conditions: Zea mays, post-emergence, 240 h
Summary of the method: as §2

[8] = system: wheat (Triticum aestivum); assay: Test B pre-/postemergence plant response; conditions: Triticum aestivum, post-emergence, 240 h, read-out: Plant response rating, Wheat
Summary of the method: as §2

[9] = system: pigweed (Amaranthus retroflexus); assay: Test B pre-/postemergence plant response; conditions: for pest or weed control at 500 g/ha: 500 g ai/ha
Summary of the method: as §2

[10] = system: galium (catchweed bedstraw, Galium aparine); assay: Test D pre-/postemergence plant response; conditions: Galium, pre-emergence, Preemergence
Summary of the method: (§3)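 0 = no effect, 100 = complete control: plants were scored this way by visual comparison with controls 13 to 15 days post-treatment. Application was preemergence to sown loam/sand pots or postemergence to 2–18 cm seedlings in peat-based mix.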

[11] = system: winter wheat (Triticum aestivum); assay: Test D pre-/postemergence plant response; conditions: Triticum aestivum, pre-emergence, Preemergence
Summary of the method: as §3

[12] = system: large (Lg) crabgrass (Digitaria sanguinalis); assay: Test D pre-/postemergence plant response; conditions: Digitaria sanguinalis, pre-emergence, Preemergence
Summary of the method: as §3

[13] = system: blackgrass (Alopecurus myosuroides); assay: Test D pre-/postemergence plant response; conditions: Alopecurus myosuroides, pre-emergence, Preemergence
Summary of the method: as §3

[14] = system: johnsongrass (Sorghum halepense); assay: Test D pre-/postemergence plant response; conditions: Sorghum halepense, pre-emergence, Preemergence
Summary of the method: as §3

[15] = system: velvetleaf (Abutilon theophrasti); assay: Test D pre-/postemergence plant response; conditions: Abutilon theophrasti, pre-emergence, Preemergence
Summary of the method: as §3

[16] = system: lambsquarters (Chenopodium album); assay: Test D pre-/postemergence plant response; conditions: Chenopodium album, pre-emergence, Preemergence
Summary of the method: as §3

[17] = Preemergence, 125 g ai/ha, 0 to 100 scale (0 no effect, 100 complete control)
[18] = 125 g ai/ha, postemergence, 0 to 100 scale, 0 no effect, 100 complete control
[19] = Postemergence, 500 g ai/ha, 0 to 100 scale (0 no effect, 100 complete control)

`N#Cc1cccc(Oc2ncc(Cl)cn2)c1-c1cc(C(F)(F)F)ccn1` [Compound 158, 5-chloro-2-[3-cyano-2-[4-(trifluoromethyl)-2-pyridinyl]phenoxy]pyrimidine] showed a pest or weed control at 250 g/ha [1] of 0%, a pest or weed control at 250 g/ha [2] of 50% and a pest or weed control at 250 g/ha [3] of 0%. It also gave a plant injury at 250 g/ha [4] of 0%, a pest or weed control at 125 g/ha ([5]; Echinochloa crus-galli, post-emergence, 240 h, 125 g ai/ha, postemergence, 0 to 100 scale, 0 no effect, 100 complete control, read-out: Plant response rating, Barnyardgrass) of 60% and a pest or weed control at 500 g/ha ([5]; Echinochloa crus-galli, post-emergence, 240 h, Postemergence, 0 to 100 scale (0 no effect, 100 complete control), read-out: Plant response rating, Barnyardgrass) of 100%. The pest or weed control at 500 g/ha ([5]; Echinochloa crus-galli, pre-emergence, 240 h, Preemergence, 0 to 100 scale where 0 is no effect and 100 is complete control, read-out: Plant response rating, Barnyardgrass) was 100%, the “Barnyardgrass plant response rating” value [5, 17] was 90 and the “Foxtail, Giant plant response rating” value [6, 17] was 90. The pest or weed control at 125 g/ha ([6]; Setaria faberi, post-emergence, 240 h, 125 g ai/ha, postemergence, 0 to 100 scale, 0 no effect, 100 complete control, read-out: Plant response rating, Foxtail, Giant) was 50%, the pest or weed control at 500 g/ha ([6]; Setaria faberi, post-emergence, 240 h, Postemergence, 0 to 100 scale (0 no effect, 100 complete control), read-out: Plant response rating, Foxtail, Giant) was 100% and the pest or weed control at 500 g/ha ([6]; Setaria faberi, pre-emergence, 240 h, Preemergence, 0 to 100 scale where 0 is no effect and 100 is complete control, read-out: Plant response rating, Foxtail, Giant) was 100%. The Corn plant response rating (crop injury, 0 = no effect, 100 = complete kill) at 125 g/ha [7, 18] was 30%, the Corn plant response rating (crop injury, 0 = no effect, 100 = complete kill) at 500 g/ha [7, 19] was 90% and the plant injury at 125 g/ha [8, 18] was 20%. The plant injury at 500 g/ha [8, 19] was 70%, the pest or weed control at 125 g/ha ([9]; Amaranthus retroflexus, post-emergence, 240 h, 125 g ai/ha, postemergence, 0 to 100 scale, 0 no effect, 100 complete control, read-out: Plant response rating, Pigweed) was 80% and the pest or weed control at 500 g/ha ([9]; Amaranthus retroflexus, post-emergence, 240 h, Postemergence, 0 to 100 scale (0 no effect, 100 complete control), read-out: Plant response rating, Pigweed) was 100%. The pest or weed control at 500 g/ha ([9]; Amaranthus retroflexus, pre-emergence, 240 h, Preemergence, 0 to 100 scale where 0 is no effect and 100 is complete control, read-out: Plant response rating, Pigweed) was 100%, the “Pigweed plant response rating” value [9, 17] was 90 and the pest or weed control at 125 g/ha ([10]; 125 g ai/ha, read-out: Plant response rating (scale 0 to 100), Galium) was 100%. The pest or weed control at 16 g/ha ([10]; 16 g ai/ha, scale 0 to 100 (0 no effect, 100 complete control), read-out: Plant response rating, Galium) was 0%, the pest or weed control at 31 g/ha ([10]; 31 g ai/ha, scale 0 to 100 (0 no effect, 100 complete control), read-out: Plant response rating, Galium) was 50% and the pest or weed control at 62 g/ha ([10]; 62 g ai/ha, scale 0 to 100 (0 no effect, 100 complete control), read-out: Plant response rating, Galium) was 100%. The plant injury at 125 g/ha ([11]; 125 g ai/ha, read-out: Plant response rating (scale 0 to 100), Wheat) was 0%, the plant injury at 16 g/ha ([11]; 16 g ai/ha, scale 0 to 100 (0 no effect, 100 complete control), read-out: Plant response rating, Wheat) was 0% and the plant injury at 31 g/ha ([11]; 31 g ai/ha, scale 0 to 100 (0 no effect, 100 complete control), read-out: Plant response rating, Wheat) was 0%. The plant injury at 62 g/ha ([11]; 62 g ai/ha, scale 0 to 100 (0 no effect, 100 complete control), read-out: Plant response rating, Wheat) was 0%, the pest or weed control at 125 g/ha ([12]; 125 g ai/ha, read-out: Plant response rating (scale 0 to 100), Crabgrass, Large) was 100% and the pest or weed control at 16 g/ha ([12]; 16 g ai/ha, scale 0 to 100 (0 no effect, 100 complete control), read-out: Plant response rating, Crabgrass, Large) was 25%. For the same molecule, the pest or weed control at 31 g/ha ([12]; 31 g ai/ha, scale 0 to 100 (0 no effect, 100 complete control), read-out: Plant response rating, Crabgrass, Large) was 90%, the pest or weed control at 62 g/ha ([12]; 62 g ai/ha, scale 0 to 100 (0 no effect, 100 complete control), read-out: Plant response rating, Crabgrass, Large) was 85% and the pest or weed control at 125 g/ha ([13]; 125 g ai/ha, read-out: Plant response rating (scale 0 to 100), Blackgrass) was 90%. It also gave a pest or weed control at 16 g/ha ([13]; 16 g ai/ha, scale 0 to 100 (0 no effect, 100 complete control), read-out: Plant response rating, Blackgrass) of 0%, a pest or weed control at 31 g/ha ([13]; 31 g ai/ha, scale 0 to 100 (0 no effect, 100 complete control), read-out: Plant response rating, Blackgrass) of 15% and a pest or weed control at 62 g/ha ([13]; 62 g ai/ha, scale 0 to 100 (0 no effect, 100 complete control), read-out: Plant response rating, Blackgrass) of 50%. It also gave a pest or weed control at 125 g/ha ([14]; 125 g ai/ha, read-out: Plant response rating (scale 0 to 100), Johnsongrass) of 40%, a pest or weed control at 16 g/ha ([14]; 16 g ai/ha, scale 0 to 100 (0 no effect, 100 complete control), read-out: Plant response rating, Johnsongrass) of 0% and a pest or weed control at 31 g/ha ([14]; 31 g ai/ha, scale 0 to 100 (0 no effect, 100 complete control), read-out: Plant response rating, Johnsongrass) of 0%. It also gave a pest or weed control at 62 g/ha ([14]; 62 g ai/ha, scale 0 to 100 (0 no effect, 100 complete control), read-out: Plant response rating, Johnsongrass) of 10%, a pest or weed control at 125 g/ha ([15]; 125 g ai/ha, read-out: Plant response rating (scale 0 to 100), Velvetleaf) of 70% and a pest or weed control at 16 g/ha ([15]; 16 g ai/ha, scale 0 to 100 (0 no effect, 100 complete control), read-out: Plant response rating, Velvetleaf) of 35%. It also gave a pest or weed control at 31 g/ha ([15]; 31 g ai/ha, scale 0 to 100 (0 no effect, 100 complete control), read-out: Plant response rating, Velvetleaf) of 25%, a pest or weed control at 62 g/ha ([15]; 62 g ai/ha, scale 0 to 100 (0 no effect, 100 complete control), read-out: Plant response rating, Velvetleaf) of 40% and a pest or weed control at 125 g/ha ([16]; 125 g ai/ha, read-out: Plant response rating (scale 0 to 100), Lambsquarters) of 80%. It also gave a pest or weed control at 16 g/ha ([16]; 16 g ai/ha, scale 0 to 100 (0 no effect, 100 complete control), read-out: Plant response rating, Lambsquarters) of 75%, a pest or weed control at 31 g/ha ([16]; 31 g ai/ha, scale 0 to 100 (0 no effect, 100 complete control), read-out: Plant response rating, Lambsquarters) of 100% and a pest or weed control at 62 g/ha ([16]; 62 g ai/ha, scale 0 to 100 (0 no effect, 100 complete control), read-out: Plant response rating, Lambsquarters) of 100%.
